Patent publication US10995068B2, “Synthetic sphingolipid-like molecules, drugs, methods of their synthesis and methods of treatment” (The Regents of the University of California, priority 2015, dated 2021)
Values belong to the molecule of their own block, whether it stands above or below them.

Experiments:
PIKfyve = biological target: T1, PIKfyve (Homo sapiens, UniProt Q9Y2I7); assay: PIKfyve in vitro kinase assay; assay type: biochemical; conditions: FLAG-PIKfyve
T1 construct: made in house; host or cells: HEK293T cells
Excerpt: In certain embodiments of the invention, sphingolipid-like molecules mis-localize PIKfyve preventing its association with TRMPL1 and inducing vacuolation, instead of inhibiting PIKfyve kinase activity. While PIKfyve localized to the limiting membrane of YM201636-induced vacuoles as expected, PIKfyve was present in clumps between vacuoles in FTY720-treated cells (FIGS. 57C and 56F).
PIKfyve in vitro kinase assay. FLAG-PIKfyve was expressed in HEK293T cells, purified with FLAG-beads, and eluted with FLAG peptides. PI3P and phosphatidylserine (C16) liposomes were generated by sonication in 2× lipid mixture buffer [40 mM Tris-HCl (pH 7.4), 200 mM NaCl, 1 mM EGTA] with or without FTY720. FLAG-PIKfyve and lipid mixtures were incubated with Mg^2+-ATP solution [6.5 mM HEPES (pH 7.3), 2.5 mM MnCl2, 10 mM MgCl2, 1 mM β-glycerophosphate, 0.1 mM ATP and [^32P]-γ-ATP] for 15 min at RT. The reaction was stopped by adding 4 M HCl, and phosphoinositides were extracted with methanol/chloroform (1:1). Phosphoinositides were spotted on silica thin-layer chromatography plates and separated with 2 M acetic acid/1-propanol (35:65). Membranes were dried, exposed to a Phospho Imager, and the counts from PI(3,5)P2 spots quantified with ImageQuant.

PC3 cells = assay: Phosphorylation in intact cells by UPLC-MS/MS, PC3; assay type: in vitro ADME, human; conditions: 10 μM, 16 h incubation, percent of total compound recovered by UPLC-MS/MS
Method: (§1) Mass spectrometric quantification: One million PC3 or 5 million SW620 cells in one well of a 6 well plate are treated with 10 μM FTY720 or 5 for 16 h. Media (100 μl) is removed from the well and combined with 100 μl of acetonitrile. Cells are collected by scraping, pelleted, and re-suspended in 100 μl of HPLC-grade water followed by the addition of 100 μl acetonitrile. Seventy-five nanograms of the compounds not being quantified (FTY720 and FTY720-P for analysis of the phosphorylation of 5, or 5 and 5-P for the analysis of FTY720/FYT720-P) is added to serve as an internal standard to allow correction for loss of compound during sample preparation. […] Insoluble material is again removed by centrifugation and the supernatant analyzed for compound content. Twenty microliters of this de-proteinated sample is analyzed by UPLC-MS/MS (Waters Micromass Quattro Premier XE) equipped with a C18 reversed phase column (Waters) using an acetonitrile (+0.2% acetic acid) gradient elution. […] The cone voltages are 30V for FTY720 and 5, and 20V for FTY720-P and 5-P. A standard curve is generated using pure compounds to allow for quantification; standard curves were linear from 50-1000 ng/ml with an R^2 of 0.98 or greater. […]

SW620 cells = assay: Phosphorylation in intact cells by UPLC-MS/MS, SW620; assay type: in vitro ADME, human; conditions: 10 μM, 16 h incubation, percent of total compound recovered by UPLC-MS/MS
Method: as §1

[1] = Blood chemistry of pDKO mice; assay type: in vivo; conditions: for Alkaline Phosphatase: Means ± SEM, n = 4, in U/L (unit assumed); for Albumin / Globulin / Total Protein: in g/dL (unit assumed); for Blood Urea Nitrogen / Ca^2+ / Cholesterol / P / Total Bilirubin: in mg/dL (unit assumed); for HCO^3−: in mmol/L (unit assumed); for Creatine: unit assumed
Method: In vivo studies. Experiments conducted in mice were performed in accordance with the Institutional Animal Care and Use Committee of University of California, Irvine following a power analysis conducted in consultation with the Biostatistics Shared Resource of Chao Family Comprehensive Cancer Center at UCI. Xenografts were produced by injecting 5 million cells subcutaneously in the flank of 10-16 week-old male or female NSG mice. Prostate isografts were produced in the same manner but in male 6-8 wk old C57BL/6 mice. Once tumors reached 100 mm^3, SH-BC-893 was administered by intraperitoneal (i.p.) injection or oral gavage as indicated. Tumor volume was calculated using the formula, volume (mm^3)=length [mm]×(width [mm])^2×0.52; BLI was measured using an IVIS imaging system (Xenogen). To generate pDKO mice on the C57BL6 background, Pten^flox mice (stock No. 0045597) and p53^flox mice (stock No. 008462) were obtained from the Jackson Laboratory and PB-Cre4 mice (strain #01XF5) were obtained from the NCI-Frederick Mouse Repository. Age-matched cohorts of pDKO males were generated by in vitro fertilization executed with the assistance of the Transgenic Mouse Facility at UC Irvine. Treatment was begun at 6-7 wks of age. […] Tumor samples were processed and imaged by the Pathology Research Services Core Facility at UC Irvine. Blood chemistry was analyzed by IDEXX BioResearch and complete blood counts were performed using a Hemavet hematology system.

[2] = 60 mg/kg, at sacrifice, in U/L (unit assumed)
[3] = 120 mg/kg, at sacrifice, in U/L (unit assumed)

T1 sequence (Q9Y2I7 whole entry, species assumed): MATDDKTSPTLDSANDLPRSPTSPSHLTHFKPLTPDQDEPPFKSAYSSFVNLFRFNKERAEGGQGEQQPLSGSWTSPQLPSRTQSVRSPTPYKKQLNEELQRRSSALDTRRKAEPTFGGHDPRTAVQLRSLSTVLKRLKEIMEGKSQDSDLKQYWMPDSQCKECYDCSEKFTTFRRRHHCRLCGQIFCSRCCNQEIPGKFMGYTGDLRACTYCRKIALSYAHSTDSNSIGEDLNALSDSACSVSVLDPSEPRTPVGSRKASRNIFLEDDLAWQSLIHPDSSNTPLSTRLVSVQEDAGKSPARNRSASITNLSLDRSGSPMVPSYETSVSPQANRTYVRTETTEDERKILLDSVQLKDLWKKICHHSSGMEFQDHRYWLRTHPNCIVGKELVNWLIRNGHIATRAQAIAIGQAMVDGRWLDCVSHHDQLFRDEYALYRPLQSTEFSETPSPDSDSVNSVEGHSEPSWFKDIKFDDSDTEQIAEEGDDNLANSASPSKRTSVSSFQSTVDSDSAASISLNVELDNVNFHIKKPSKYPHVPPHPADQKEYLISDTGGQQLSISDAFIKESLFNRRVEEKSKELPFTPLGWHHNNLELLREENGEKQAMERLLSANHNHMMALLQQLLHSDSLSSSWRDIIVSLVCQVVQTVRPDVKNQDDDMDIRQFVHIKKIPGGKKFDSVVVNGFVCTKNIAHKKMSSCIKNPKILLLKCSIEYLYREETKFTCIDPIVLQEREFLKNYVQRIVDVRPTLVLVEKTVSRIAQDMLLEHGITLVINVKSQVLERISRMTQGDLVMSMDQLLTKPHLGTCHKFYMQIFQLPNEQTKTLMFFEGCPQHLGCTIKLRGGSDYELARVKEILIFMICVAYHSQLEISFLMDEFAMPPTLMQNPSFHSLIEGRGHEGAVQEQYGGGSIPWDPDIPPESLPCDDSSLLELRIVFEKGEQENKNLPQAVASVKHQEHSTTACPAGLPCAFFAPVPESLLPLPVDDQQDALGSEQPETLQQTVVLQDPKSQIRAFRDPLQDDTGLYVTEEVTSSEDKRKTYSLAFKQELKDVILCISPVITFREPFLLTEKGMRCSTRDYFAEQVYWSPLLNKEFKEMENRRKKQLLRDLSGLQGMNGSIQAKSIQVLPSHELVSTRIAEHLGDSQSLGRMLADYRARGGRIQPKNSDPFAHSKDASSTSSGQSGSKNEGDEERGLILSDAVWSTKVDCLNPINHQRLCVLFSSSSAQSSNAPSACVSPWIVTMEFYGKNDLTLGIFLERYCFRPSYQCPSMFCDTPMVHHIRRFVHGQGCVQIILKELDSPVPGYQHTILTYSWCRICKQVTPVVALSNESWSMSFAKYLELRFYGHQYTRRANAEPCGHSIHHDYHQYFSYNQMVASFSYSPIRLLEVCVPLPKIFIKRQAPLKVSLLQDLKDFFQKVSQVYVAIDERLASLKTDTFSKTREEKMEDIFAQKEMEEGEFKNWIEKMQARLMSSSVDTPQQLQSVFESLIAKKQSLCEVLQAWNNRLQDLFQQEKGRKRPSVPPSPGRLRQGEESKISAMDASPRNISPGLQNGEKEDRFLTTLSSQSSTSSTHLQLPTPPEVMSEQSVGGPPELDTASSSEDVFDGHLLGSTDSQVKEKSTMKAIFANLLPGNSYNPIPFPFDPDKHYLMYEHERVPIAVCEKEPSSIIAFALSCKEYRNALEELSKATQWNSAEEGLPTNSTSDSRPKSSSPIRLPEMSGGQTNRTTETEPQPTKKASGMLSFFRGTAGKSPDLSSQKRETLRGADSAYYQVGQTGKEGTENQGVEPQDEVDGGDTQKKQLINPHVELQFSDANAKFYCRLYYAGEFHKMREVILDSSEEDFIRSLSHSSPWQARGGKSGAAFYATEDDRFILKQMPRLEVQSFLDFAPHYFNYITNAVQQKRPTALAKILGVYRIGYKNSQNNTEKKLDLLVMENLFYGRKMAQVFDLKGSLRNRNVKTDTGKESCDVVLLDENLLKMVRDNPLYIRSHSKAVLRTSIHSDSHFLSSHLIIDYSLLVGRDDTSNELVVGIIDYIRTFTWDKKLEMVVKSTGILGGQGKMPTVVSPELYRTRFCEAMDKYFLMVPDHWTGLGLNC

- PIKfyve kinase activity (PIKfyve): did not inhibit PIKfyve kinase activity
Compound: CCCCCCCCc1ccc(CCC(N)(CO)CO)cc1.Cl [FTY720, 2-Amino-2-[2-(4-octylphenyl)ethyl]propane 1,3-diol hydrochloride, reference compound]

Compound: CCCCCCCCc1ccc([C@H]2CCN[C@@H]2CO)cc1.Cl [Compound 5, (2S,3R)-2-(hydroxymethyl)-3-(4-octylphenyl)Pyrrolidinium chloride]
- efficiency of phosphorylation in intact cells (PC3 cells): phosphorylated slightly more efficiently than FTY720
- efficiency of phosphorylation in intact cells (SW620 cells): phosphorylated slightly more efficiently than FTY720
- Glucose ([1]; 60 mg/kg, at sacrifice): 282 ± 24^
- Alkaline Phosphatase ([1]; 60 mg/kg, at sacrifice): 77 ± 7.8
- Creatine Phosphokinase [1, 2]: 5,340 ± 2366
- Serum Glutamic Oxaloacetic Transaminase (Asp aminotransferase) [1, 2]: 640 ± 136
- Serum Glutamic-Pyruvic Transaminase (Ala aminotransferase) [1, 2]: 78 ± 25
- Albumin ([1]; 60 mg/kg, at sacrifice): 3 ± 0.2
- Globulin ([1]; 60 mg/kg, at sacrifice): 2 ± 0.18
- Total Protein ([1]; 60 mg/kg, at sacrifice): 5 ± 0.4
- Blood Urea Nitrogen ([1]; 60 mg/kg, at sacrifice): 19 ± 1.1
- Ca^2+ ([1]; 60 mg/kg, at sacrifice): 10 ± 0.7
- Cholesterol ([1]; 60 mg/kg, at sacrifice): 134 ± 15.8
- P ([1]; 60 mg/kg, at sacrifice): 11 ± 1.0
- Total Bilirubin ([1]; 60 mg/kg, at sacrifice): 0.1 ± 0
- HCO^3− ([1]; 60 mg/kg, at sacrifice): 20 ± 3.2
- Creatine ([1]; 60 mg/kg, at sacrifice): < 0.2 mg/dL
- Glucose ([1]; 120 mg/kg, at sacrifice): 307 ± 28^
- Alkaline Phosphatase ([1]; 120 mg/kg, at sacrifice): 83 ± 6.2
- Serum Glutamic Oxaloacetic Transaminase (Asp aminotransferase) [1, 3]: 907 ± 171
- Serum Glutamic-Pyruvic Transaminase (Ala aminotransferase) [1, 3]: 91 ± 17.2
- Albumin ([1]; 120 mg/kg, at sacrifice): 3 ± 0.1
- Globulin ([1]; 120 mg/kg, at sacrifice): 2 ± 0.03
- Total Protein ([1]; 120 mg/kg, at sacrifice): 6 ± 0.2
- Blood Urea Nitrogen ([1]; 120 mg/kg, at sacrifice): 23 ± 1.5
- Ca^2+ ([1]; 120 mg/kg, at sacrifice): 10 ± 0.1
- Cholesterol ([1]; 120 mg/kg, at sacrifice): 107 ± 7.5
- P ([1]; 120 mg/kg, at sacrifice): 13 ± 0.1
- Total Bilirubin ([1]; 120 mg/kg, at sacrifice): 0.2 ± 0.03
- HCO^3− ([1]; 120 mg/kg, at sacrifice): 17 ± 2.8
- Creatine ([1]; 120 mg/kg, at sacrifice): < 0.2 mg/dL
- toxicity to the liver or kidneys by blood chemistry at sacrifice ([1]; anti-neoplastic dose): not toxic to the liver or kidneys
